This note sets out measurements from US20250066345A1, “COMPOSITIONS AND METHODS OF USE TO TREAT 12-LIPOXYGENASE (12-LOX) MEDIATED DISEASES” (VERALOX THERAPEUTICS, priority 2021, published 2025).

pIC50: −log10 of the molar value.

As a reminder, the pIC50 is the IC50 on a negative log10 scale, so that one unit is a factor of ten. Read a high pIC50 as a low IC50.

One assay deals with 12-LOX (Homo sapiens (Human), UniProt P18054). In words: 12-LOX IC50 determination, UV-Vis assay with arachidonic acid substrate. It is filed as biochemical. The settings on record: 30 nM 12-LOX, 50 μM AA, absorbance of 12-HPETE at 234 nm. As to the method:
(§1) The compounds were evaluated for inhibition of 12-LOX, as well as selectivity by measuring inhibition against 15-LOX for some compounds, using a UV-Vis assay. Arachidonic acid (AA) was used as a substrate for 12-LOX and 15-LOX. ML355 was used as the control inhibitor for 12-LOX. ML351 (5-(Methylamino)-2-(1-naphthalenyl)-4-oxazolecarbonitrile) was used as the control inhibitor for 15-LOX.
(§2) Reaction buffers used for the lipoxygenase assay were as follows: 25 mM HEPES (pH 7.5), with 0.01% Triton X-100. 1 mM 12-HPETE or 1 mM 15-HPETE stock solution was prepared in 25 mM HEPES with 0.01% Triton X-100.
The standard curve of 12-HPETE was made by serial dilution of 0, 6.25, 12.5, 25, 50, 75 and 100 μM, and the final reaction volume in 96 Well Clear Flat Bottom UV-Transparent Microplate is 100 μL. The absorbance of the 12-HPETE at each concentration was measured at 234 nm.
(§3) IC50 values were obtained by determining the % inhibition at various inhibitor concentrations. The final concentrations of the control inhibitors and test compounds in the IC50 determination assay are 0, 0.03, 0.1, 0.3, 1, 3, 10 and 20 μM. The final concentration of DMSO in the assay is 0.05%.
12-LOX IC50 determination. The 12-LOX enzyme and AA were diluted in the HEPES buffer to 120 nM and 200 μM, respectively. Pre-incubation 50 μL of indicated test compounds and 25 μL 120 nM enzyme at room temperature for 5 min. The reaction is started by adding 25 μL 200 μM AA. After a short spin (1000 rpm, 15 s), incubate the reaction system for 5 min. The blank control was set by adding 25 μL HEPES to 50 μL of control inhibitor compound (MHL355) and 25 μL 200 μM AA. The final concentrations of 12-LOX enzyme and AA were 30 nM and 50 μM, respectively. The absorbance of the 12-HPETE at 234 nm was measured.
(§4) The IC50 value was calculated by using GraphPad Prism 8.0.2.
(§5) The IC50 values are calculated with remaining activity (%) and logarithm of inhibitor concentrations.
(§6) Remaining Activity (%)=OD value inhibitor/OD value vehicle×100

Another assay concerns the target 15-LOX (Homo sapiens (Human), UniProt P16050). Put plainly: 15-LOX IC50 determination, UV-Vis assay with arachidonic acid substrate (selectivity). Type of assay: biochemical. The settings on record: selectivity for 12-LOX over 15-LOX; 120 nM 15-LOX, AA substrate. As to the method: as §1, §2
The standard curve of 15-HPETE was made by serial dilution of 0, 3.125, 6.25, 12.5, 25, 50 and 100 μM, and the final reaction volume in 96 Well Clear Flat Bottom UV-Transparent Microplate is 100 μL. The absorbance of the […] at each concentration was measured at 234 nm.
as §3
15-LOX IC50 determination. The 15-LOX enzyme and AA were diluted in the HEPES buffer to 480 nM and 200 μM, respectively. Pre-incubation 50 μL of indicated test compounds and 25 μL 480 nM enzyme at room temperature for 5 min. The reaction is started by adding 25 μL 200 μM AA. After a short spin (1000 rpm, 15 s), incubate the reaction system for 3 min. The blank control was set by adding 25 μL HEPES to 50 μL of control inhibitor compound (MHL355) and 25 μL 200 μM AA. The final concentrations of 15-LOX enzyme and AA were 120 nM and 50 µM, respectively. The absorbance of the 15-HPETE at 234 nm was measured. The assay was performed in duplicate.
as §4, §5, §6

Sequence of 15-LOX (P16050 whole entry): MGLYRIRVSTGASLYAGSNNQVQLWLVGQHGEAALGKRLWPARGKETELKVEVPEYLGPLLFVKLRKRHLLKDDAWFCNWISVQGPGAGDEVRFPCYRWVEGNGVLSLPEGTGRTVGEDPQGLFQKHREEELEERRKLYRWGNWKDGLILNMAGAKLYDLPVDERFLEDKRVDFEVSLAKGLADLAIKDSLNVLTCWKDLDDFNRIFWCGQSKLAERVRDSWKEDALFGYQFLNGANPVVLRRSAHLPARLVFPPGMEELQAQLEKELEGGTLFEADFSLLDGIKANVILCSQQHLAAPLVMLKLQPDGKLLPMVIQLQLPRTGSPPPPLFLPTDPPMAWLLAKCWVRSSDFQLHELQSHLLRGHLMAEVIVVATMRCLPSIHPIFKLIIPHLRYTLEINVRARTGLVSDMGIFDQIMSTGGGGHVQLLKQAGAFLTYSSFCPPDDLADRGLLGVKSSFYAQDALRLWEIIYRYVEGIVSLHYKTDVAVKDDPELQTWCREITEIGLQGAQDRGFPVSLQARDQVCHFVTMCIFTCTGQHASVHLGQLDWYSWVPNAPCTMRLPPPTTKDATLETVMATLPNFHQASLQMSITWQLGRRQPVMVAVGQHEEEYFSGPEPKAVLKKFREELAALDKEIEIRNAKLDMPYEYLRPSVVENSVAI
Sequence of 12-LOX (P18054 whole entry): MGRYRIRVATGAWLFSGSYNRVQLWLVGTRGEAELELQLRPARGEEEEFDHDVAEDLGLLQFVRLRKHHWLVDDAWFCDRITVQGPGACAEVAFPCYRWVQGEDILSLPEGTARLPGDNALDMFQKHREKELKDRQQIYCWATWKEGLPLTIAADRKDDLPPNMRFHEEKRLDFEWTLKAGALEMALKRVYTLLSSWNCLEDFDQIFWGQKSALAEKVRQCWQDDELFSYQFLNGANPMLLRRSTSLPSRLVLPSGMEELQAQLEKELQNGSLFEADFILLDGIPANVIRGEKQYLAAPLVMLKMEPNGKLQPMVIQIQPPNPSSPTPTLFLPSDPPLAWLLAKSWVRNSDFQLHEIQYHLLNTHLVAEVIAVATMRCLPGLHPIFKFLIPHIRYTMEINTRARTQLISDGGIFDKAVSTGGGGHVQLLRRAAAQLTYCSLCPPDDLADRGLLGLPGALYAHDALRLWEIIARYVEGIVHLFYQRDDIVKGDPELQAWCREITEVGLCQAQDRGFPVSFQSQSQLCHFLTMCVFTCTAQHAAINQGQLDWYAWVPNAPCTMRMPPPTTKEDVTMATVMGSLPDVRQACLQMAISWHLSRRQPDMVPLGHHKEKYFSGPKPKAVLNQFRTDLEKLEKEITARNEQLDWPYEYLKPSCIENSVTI

Take `COc1cccc(CNc2ccc(S(=O)(=O)Nc3nc(-c4ccc(F)c(Cl)c4)c(F)s3)nc2)c1O` [Compound I-1]: the pIC50 against 12-LOX was more than 6.60. In addition, on 15-LOX, the “Selectivity over 15-LOX” value was >50-fold. The matching figures for `COc1cccc(CNc2ccc(S(=O)(=O)Nc3nc(-c4ccc(Cl)c(F)c4)c(F)s3)nc2)c1O` [Compound I-2]: more than 6.60 and >50-fold.

For the compound `COc1cccc(CNc2ccc(S(=O)(=O)Nc3nc(-c4ccc(C(C)C)cc4)c(F)s3)nc2)c1O` [Compound I-3], the negative-log IC50 (pIC50) against 12-LOX was more than 6.60. The “Selectivity over 15-LOX” value on 15-LOX was >20-fold. Taken in the same sequence, the figures for `COc1cccc(CNc2ccc(S(=O)(=O)Nc3nc(-c4ccc(C(C)C)cc4)cs3)nc2)c1O` [Compound I-4] were more than 6.60 and >50-fold. The matching figures for `COc1cccc(CNc2ccc(S(=O)(=O)Nc3nc(-c4ccc(C5CC5)cc4)cs3)nc2)c1O` [Compound I-5]: more than 6.60 and >50-fold. Taken in the same sequence, the figures for `COc1cccc(CNc2ccc(S(=O)(=O)Nc3nc(-c4ccc(F)c(F)c4)c(F)s3)nc2)c1O` [Compound I-6] were more than 6.60 and >50-fold.

In turn, `COc1cccc(CNc2ccc(S(=O)(=O)Nc3nc(-c4ccc(F)c(F)c4)cs3)nc2)c1O` [Compound I-7] gave a pIC50 against 12-LOX of more than 6.60. Further, at 15-LOX, the “Selectivity over 15-LOX” value is given as >50-fold. Taken in the same sequence, the figures for `COc1cccc(CNc2ccc(S(=O)(=O)Nc3nc(-c4ccc(Cl)c(F)c4)cs3)nc2)c1O` [Compound I-8, N-(4-(4-chloro-3-fluorophenyl)thiazol-2-yl)-5-((2-hydroxy-3-methoxybenzyl)amino)pyridine-2-sulfonamide] were more than 6.60 and >50-fold. `COc1cccc(CNc2ccc(S(=O)(=O)Nc3nc(-c4ccc(F)c(Cl)c4)cs3)nc2)c1O` [Compound I-9] gave a pIC50 against 12-LOX of 6.00 to 6.60. Also, at 15-LOX, the “Selectivity over 15-LOX” value is >50-fold. On to `COc1cccc(CNc2ccc(S(=O)(=O)Nc3nc4ccccc4s3)nc2)c1O` [Compound I-10], for which the pIC50 against 12-LOX is less than 6.00.

On 12-LOX, `COc1cccc(CN(C)c2ccc(S(=O)(=O)Nc3nc(-c4ccc(F)c(F)c4)c(F)s3)nc2)c1O` [Compound I-11] showed a pIC50 of 6.00 to 6.60. Also, the “Selectivity over 15-LOX” value on 15-LOX was >20-fold. Take `COc1cccc(CNc2ccc(S(=O)(=O)Nc3nc(-c4ccc(C(F)(F)F)c(F)c4)cs3)nc2)c1O` [Compound I-12]: the pIC50 against 12-LOX was more than 6.60. In addition, the “Selectivity over 15-LOX” value on 15-LOX is given as >50-fold. Taken in the same sequence, the figures for `COc1cccc(CNc2ccc(S(=O)(=O)Nc3nc4c(ccc5ccccc54)s3)nc2)c1O` [Compound I-13] were more than 6.60 and >50-fold. The matching figures for `COc1cccc(CNc2ccc(S(=O)(=O)Nc3nc(-c4ccc(F)c(Cl)c4)c(F)s3)nc2C)c1O` [Compound I-14]: 6.00 to 6.60 and ~10-fold. The matching figures for `COc1cccc(CNc2cnc(S(=O)(=O)Nc3nc(-c4ccc(F)c(Cl)c4)c(F)s3)cc2C)c1O` [Compound I-15]: less than 6.00 and <10-fold.

`COc1cccc(CNc2cnc(S(=O)(=O)Nc3nc(-c4ccc(F)c(Cl)c4)c(F)s3)c(C)c2)c1O` [Compound I-16]: the pIC50 against 12-LOX is more than 6.60. For the same compound, at 15-LOX, the “Selectivity over 15-LOX” value is on record as >50-fold. Taken in the same sequence, the figures for `COc1cccc(CNc2cnc(S(=O)(=O)Nc3nc(-c4ccc(F)c(Cl)c4)c(F)s3)c(C(F)(F)F)c2)c1O` [Compound I-17] were more than 6.60 and >20-fold. The matching figures for `COc1cccc(CNc2cnc(S(=O)(=O)Nc3nc(-c4ccc(F)c(F)c4)c(F)s3)c(C)c2)c1O` [Compound I-18, N-(4-(3,4-difluorophenyl)-5-fluorothiazol-2-yl)-5-((2-hydroxy-3-methoxybenzyl)amino)-3-methylpyridine-2-sulfonamide]: more than 6.60 and >50-fold. `COc1cccc(CN(C)c2cnc(S(=O)(=O)Nc3nc(-c4ccc(F)c(F)c4)cs3)c(C)c2)c1O` [Compound I-19] had a pIC50 against 12-LOX of less than 6.00. On 12-LOX, `COc1cccc(CNc2cnc(S(=O)(=O)Nc3nc(-c4ccc(F)c(F)c4)c(F)s3)c(C(F)(F)F)c2)c1O` [Compound I-22] showed a pIC50 of less than 6.00. Moreover, on 15-LOX, the “Selectivity over 15-LOX” value is <10-fold.

`COc1cccc(CNc2cnc(S(=O)(=O)Nc3nc(-c4ccc(Cl)c(F)c4)c(F)s3)c(C)c2)c1O` [Compound I-23] had a pIC50 against 12-LOX of more than 6.60. Also, the “Selectivity over 15-LOX” value on 15-LOX was >50-fold. Taken in the same sequence, the figures for `COc1cccc(CNc2ccc(S(=O)(=O)Nc3nc(-c4ccc(F)c(Cl)c4)c(CO)s3)nc2)c1O` [Compound I-24] were more than 6.60 and >50-fold. For `COc1cccc(CNc2ccc(S(=O)(=O)Nc3nc(-c4ccc(C(F)(F)F)c(F)c4)c(F)s3)nc2)c1O` [Compound I-25], on 12-LOX, the pIC50 was more than 6.60. Also, the “Selectivity over 15-LOX” value at 15-LOX is given as >50-fold. Taken in the same sequence, the figures for `COc1cccc(CNc2cnc(S(=O)(=O)Nc3nc(-c4ccc(F)c(F)c4)cs3)c(C)c2)c1O` [Compound I-39] were more than 6.60 and >50-fold. The matching figures for `COc1cccc(CNc2cnc(S(=O)(=O)Nc3nc(-c4ccc(Cl)c(F)c4)cs3)c(C)c2)c1O` [Compound I-40]: more than 6.60 and >50-fold.

Take `COc1cccc(CNc2cnc(S(=O)(=O)Nc3nc(-c4ccc(F)c(Cl)c4)cs3)c(C)c2)c1O` [Compound I-41]: on 12-LOX, the pIC50 was more than 6.60. Further, the “Selectivity over 15-LOX” value at 15-LOX is >50-fold. Taken in the same sequence, the figures for `COc1cccc(CNc2cnc(S(=O)(=O)Nc3nc(-c4ccc(F)c(Cl)c4)c(F)s3)c(-c3ccccc3)c2)c1O` [Compound I-42] were more than 6.60 and >50-fold. Taken in the same sequence, the figures for `COc1cccc(CNc2cnc(S(=O)(=O)Nc3nc(-c4ccc(F)c(Cl)c4)c(F)s3)c(C3CC3)c2)c1O` [Compound I-43] were less than 6.00 and <20-fold. Taken in the same sequence, the figures for `Cc1cc(NCc2cccc(OC(F)(F)F)c2O)cnc1S(=O)(=O)Nc1nc(-c2ccc(F)c(Cl)c2)c(F)s1` [Compound I-45] were less than 6.00 and <20-fold. `CCOc1cccc(CNc2cnc(S(=O)(=O)Nc3nc(-c4ccc(F)c(Cl)c4)c(F)s3)c(C)c2)c1O` [Compound I-46] gave a pIC50 against 12-LOX of less than 6.00. Further, at 15-LOX, the “Selectivity over 15-LOX” value is <20-fold.

Consider `[2H]C([2H])([2H])Oc1cccc(CNc2cnc(S(=O)(=O)Nc3nc(-c4ccc(Cl)c(F)c4)c(F)s3)c(C([2H])([2H])[2H])c2)c1O` [Compound I-47], for which, at 12-LOX, the pIC50 was less than 6.00. Also, at 15-LOX, the “Selectivity over 15-LOX” value was <20-fold.

Take `[2H]C([2H])([2H])Oc1cccc(CNc2cnc(S(=O)(=O)Nc3nc(-c4ccc(Cl)c(F)c4)c(F)s3)c(C)c2)c1O` [Compound I-48]: the pIC50 against 12-LOX is more than 6.60. For the same compound, the “Selectivity over 15-LOX” value on 15-LOX was >50-fold.

Compound `[2H]C([2H])([2H])Oc1cccc(CNc2ccc(S(=O)(=O)Nc3nc(-c4ccc(Cl)c(F)c4)c(F)s3)nc2)c1O` [Compound I-49] showed a pIC50 against 12-LOX of more than 6.60. For the same compound, the “Selectivity over 15-LOX” value at 15-LOX was >50-fold.

For `[2H]C([2H])([2H])Oc1cccc(CNc2cnc(S(=O)(=O)Nc3nc(-c4ccc(F)c(F)c4)c(F)s3)c(C)c2)c1O` [Compound I-50], the negative-log IC50 (pIC50) against 12-LOX is 6.00 to 6.60. Also, the “Selectivity over 15-LOX” value at 15-LOX is >50-fold. For `[2H]C([2H])([2H])Oc1cccc(CNc2cnc(S(=O)(=O)Nc3nc(-c4ccc(F)c(Cl)c4)c(F)s3)c(C)c2)c1O` [Compound I-51], the pIC50 on 12-LOX was more than 6.60. Moreover, the “Selectivity over 15-LOX” value at 15-LOX was >50-fold.
